# How the values were obtained:
# BT-549 [1] = experiment: Growth inhibition of human BT549 cells assessed as cell growth at 10 uM after 48 hrs by sulforhodamine B assay; assay type: functional; conditions: BT-549, 48 h, read-out: Activity
# MCF7 = experiment: Growth inhibition of human MCF7 cells assessed as cell growth at 10 uM after 48 hrs by sulforhodamine B assay; assay type: functional; conditions: MCF7, 48 h, read-out: Activity
# MDA-MB-231 [2] = experiment: Growth inhibition of human MDA-MB-231 cells assessed as cell growth at 10 uM after 48 hrs by sulforhodamine B assay; assay type: functional; conditions: MDA-MB-231, 48 h, read-out: Activity
# UO-31 = experiment: Growth inhibition of human UO31 cells assessed as cell growth at 10 uM after 48 hrs by sulforhodamine B assay; assay type: functional; conditions: UO-31, 48 h, read-out: Activity
# CAKI-1 [3] = experiment: Growth inhibition of human CAKI-1 cells assessed as cell growth at 10 uM after 48 hrs by sulforhodamine B assay; assay type: functional; conditions: CAKI-1, 48 h, read-out: Activity
# NCI-H522 [4] = experiment: Growth inhibition of human NCI-H522 cells after 48 hrs by sulforhodamine B assay; assay type: functional; conditions: NCI-H522, 48 h
# COLO 205 [5] = experiment: Growth inhibition of human COLO205 cells after 48 hrs by sulforhodamine B assay; assay type: functional; conditions: COLO 205, 48 h
# NCI-H322M = experiment: Growth inhibition of human NCI-H322M cells after 48 hrs by sulforhodamine B assay; assay type: functional
# RPMI-8226 = experiment: Growth inhibition of human RPMI8226 cells after 48 hrs by sulforhodamine B assay; assay type: functional, cell-based; conditions: RPMI-8226, 48 h
# HL-60(TB) = experiment: Growth inhibition of human HL-60(TB) cells after 48 hrs by sulforhodamine B assay; assay type: functional; conditions: HL-60, 48 h
# CCRF-CEM = experiment: Growth inhibition of human CCRF-CEM cells after 48 hrs by sulforhodamine B assay; assay type: functional
# ACHN = experiment: Growth inhibition of human ACHN cells assessed as cell growth at 10 uM after 48 hrs by sulforhodamine B assay; assay type: functional; conditions: read-out: Activity
# [6] = Growth inhibition of human NCI-ADR-RES cells assessed as cell growth at 10 uM after 48 hrs by sulforhodamine B assay; assay type: functional; conditions: read-out: Activity
# OVCAR-5 = experiment: Growth inhibition of human OVCAR5 cells assessed as cell growth at 10 uM after 48 hrs by sulforhodamine B assay; assay type: functional; conditions: OVCAR-5, 48 h, read-out: Activity
# OVCAR-8 [7] = experiment: Growth inhibition of human OVCAR8 cells assessed as cell growth at 10 uM after 48 hrs by sulforhodamine B assay; assay type: functional; conditions: OVCAR-8, 48 h, read-out: Activity
# UACC-62 = experiment: Growth inhibition of human UACC62 cells assessed as cell growth at 10 uM after 48 hrs by sulforhodamine B assay; assay type: functional; conditions: UACC-62, 48 h, read-out: Activity
# M14 = experiment: Growth inhibition of human M14 cells assessed as cell growth at 10 uM after 48 hrs by sulforhodamine B assay; assay type: functional; conditions: M14, 48 h, read-out: Activity
# SW-620 = experiment: Growth inhibition of human SW620 cells assessed as cell growth at 10 uM after 48 hrs by sulforhodamine B assay; assay type: functional; conditions: SW-620, 48 h, read-out: Activity
# COLO 205 [8] = experiment: Growth inhibition of human COLO205 cells assessed as cell growth at 10 uM after 48 hrs by sulforhodamine B assay; assay type: functional; conditions: COLO 205, 48 h, read-out: Activity
# NCI-H522 [9] = experiment: Growth inhibition of human NCI-H522 cells assessed as cell growth at 10 uM after 48 hrs by sulforhodamine B assay; assay type: functional; conditions: NCI-H522, 48 h, read-out: Activity
# HOP-92 = experiment: Growth inhibition of human HOP92 cells assessed as cell growth at 10 uM after 48 hrs by sulforhodamine B assay; assay type: functional; conditions: HOP-92, 48 h, read-out: Activity
# BT-549 [10] = experiment: Growth inhibition of human BT549 cells after 48 hrs by sulforhodamine B assay; assay type: functional; conditions: BT-549, 48 h
# [11] = Growth inhibition of human Hs 578T cells after 48 hrs by sulforhodamine B assay; assay type: functional
# MDA-MB-231 [12] = experiment: Growth inhibition of human MDA-MB-231 cells after 48 hrs by sulforhodamine B assay; assay type: functional; conditions: MDA-MB-231, 48 h
# TK-10 = experiment: Growth inhibition of human TK10 cells after 48 hrs by sulforhodamine B assay; assay type: functional; conditions: TK-10, 48 h
# CAKI-1 [13] = experiment: Growth inhibition of human CAKI-1 cells after 48 hrs by sulforhodamine B assay; assay type: functional; conditions: CAKI-1, 48 h
# 786-0 = experiment: Growth inhibition of human 786-0 cells after 48 hrs by sulforhodamine B assay; assay type: functional; conditions: 786-0, 48 h
# OVCAR-8 [14] = experiment: Growth inhibition of human OVCAR8 cells after 48 hrs by sulforhodamine B assay; assay type: functional; conditions: OVCAR-8, 48 h
# SK-MEL-28 = experiment: Growth inhibition of human SK-MEL-28 cells after 48 hrs by sulforhodamine B assay; assay type: functional; conditions: SK-MEL-28, 48 h
# MDA-MB-435 = experiment: Growth inhibition of human MDA-MB-435 cells after 48 hrs by sulforhodamine B assay; assay type: functional, cell-based; conditions: MDA-MB-435, 48 h
# Malme-3M = experiment: Growth inhibition of human MALME-3M cells after 48 hrs by sulforhodamine B assay; assay type: functional
# SF-268 = experiment: Growth inhibition of human SF268 cells after 48 hrs by sulforhodamine B assay; assay type: functional; conditions: SF-268, 48 h
# K562 = experiment: Growth inhibition of human K562 cells assessed as cell growth at 10 uM after 48 hrs by sulforhodamine B assay; assay type: functional; conditions: K562, 48 h, read-out: Activity
# [15] = read-out: LC50 (the source's name)
smiles,measurement,setting,value
O=C(Nc1cccc(-n2cc(-c3ccncc3)c(-c3ccc(Cl)c(O)c3)n2)c1)Nc1ccc(Cl)c(Cl)c1,growth at 10 µM,BT-549 [1],34.4%
same,growth at 10 µM,MCF7,5.74%
same,growth at 10 µM,MDA-MB-231 [2],-0.72%
same,growth at 10 µM,UO-31,21%
same,growth at 10 µM,CAKI-1 [3],22.5%
same,GI50,NCI-H522 [4],1.19 µM
same,LC50 (concentration killing 50% of cells),NCI-H522 [4],> 32.5 µM
same,TGI,NCI-H522 [4],10.6 µM
same,GI50,COLO 205 [5],3.96 µM
same,LC50 (concentration killing 50% of cells),COLO 205 [5],22.7 µM
same,TGI,COLO 205 [5],9.49 µM
same,GI50,NCI-H322M,2.89 µM
same,TGI,NCI-H322M,> 32.5 µM
same,CC50,NCI-H322M; [15],> 32.5 µM
same,GI50,RPMI-8226,1.03 µM
same,IC50,RPMI-8226,1.03 µM
same,TGI,RPMI-8226,> 32.5 µM
same,CC50,RPMI-8226; [15],> 32.5 µM
same,GI50,HL-60(TB),0.515 µM
same,TGI,HL-60(TB),> 32.5 µM
same,CC50,HL-60(TB); [15],> 32.5 µM
same,GI50,CCRF-CEM,1.03 µM
same,LC50,CCRF-CEM,> 32.5 µM
same,TGI,CCRF-CEM,> 32.5 µM
same,growth at 10 µM,ACHN,12.8%
same,growth at 10 µM,[6],20.9%
same,growth at 10 µM,OVCAR-5,56.4%
same,growth at 10 µM,OVCAR-8 [7],11.7%
same,growth at 10 µM,UACC-62,14.9%
same,growth at 10 µM,M14,17.2%
same,growth at 10 µM,SW-620,24.5%
same,growth at 10 µM,COLO 205 [8],30.2%
same,growth at 10 µM,NCI-H522 [9],-6.8%
same,growth at 10 µM,HOP-92,-20.2%
same,GI50,BT-549 [10],1.7 µM
same,LC50 (50% lethal concentration),BT-549 [10],> 32.5 µM
same,TGI,BT-549 [10],16.1 µM
same,GI50,[11],0.785 µM
same,TGI,[11],3.15 µM
same,CC50,[11]; [15],> 32.5 µM
same,GI50,MDA-MB-231 [12],1.18 µM
same,LC50,MDA-MB-231 [12],> 32.5 µM
same,TGI,MDA-MB-231 [12],8.33 µM
same,GI50,TK-10,1.91 µM
same,TGI,TK-10,> 32.5 µM
same,CC50,TK-10; [15],> 32.5 µM
same,GI50,CAKI-1 [13],1.11 µM
same,TGI,CAKI-1 [13],14.3 µM
same,CC50,CAKI-1 [13]; [15],> 32.5 µM
same,GI50,786-0,7.22 µM
same,TGI,786-0,> 32.5 µM
same,CC50,786-0; [15],> 32.5 µM
same,GI50,OVCAR-8 [14],1.21 µM
same,TGI,OVCAR-8 [14],> 32.5 µM
same,CC50,OVCAR-8 [14]; [15],> 32.5 µM
same,GI50,SK-MEL-28,1.46 µM
same,LC50,SK-MEL-28,> 32.5 µM
same,TGI,SK-MEL-28,9.85 µM
same,GI50,MDA-MB-435,1.1 µM
same,IC50,MDA-MB-435,1.1 µM
same,TGI,MDA-MB-435,6.05 µM
same,CC50,MDA-MB-435; [15],> 32.5 µM
same,GI50,Malme-3M,1.19 µM
same,LC50 (concentration killing 50% of starting cells),Malme-3M,> 32.5 µM
same,TGI,Malme-3M,8.1 µM
same,GI50,SF-268,1.49 µM
same,TGI,SF-268,10.9 µM
same,CC50,SF-268; [15],> 32.5 µM
same,growth at 10 µM,K562,11.4%

# — ChEMBL document CHEMBL2440076, “New triarylpyrazoles as broad-spectrum anticancer agents: design, synthesis, and biological evaluation” (Eur J Med Chem, 2013)
